Reference: patent publication US7371811B2, “Schizophrenia associated genes, proteins and biallelic markers” (Serono Genetics Institute S.A., priority 1998, dated 2008)

Test system: Male C57BL6 adult mice
Test: Effect of sbg1 peptide on behavior of mice (locomotor and stereotypy movements)
Assay type: in vivo
Details: 50 μg peptide intraperitoneally in 200 μl saline, n=4/peptide, FIG. 18
Experimental: In one example, the present inventors have tested sbg1 peptides by injection into mice. An sbg1 peptide comprising amino acid positions 124 to 153 of SEQ ID No 34 was injected peritoneally into adult mice as described herein in Example 7. […] Because the onset of stereotypy was variable, data are presented as the average of stereotypy for observations over the entire time period.
Animals: Male C57BL6 adult mice (approximately 6 weeks old)
Peptides: sbg1 peptide: • NH2-[…]-COOH (SEQ ID NO:232) • Control 1: NH2-[…]-COOH (SEQ ID NO:233) • Control 2: NH2-MHMKTILGPRLGLGE-COOH (SEQ ID NO:234)
Protocol: • 1. Inject mice intraperitoneally with 50 μg peptide in 200 μl sterile physiological saline (n=4/peptide). • 2. Place mice in clean empty cages containing no litter, and only a small test tube rack. The cages are covered with a plastic sheet to enable taking photographs and video-tracking. • 3. Observe behavior for one minute from t=5 min up to t=45 min, as indicated. Any locomoter or stereotypy movements were recorded as positive over 1 min intervals. Locomoter movements include climbing, and rearing while stereotypy movements include grooming and scratching. At the end of the experiment, the number of movements were added up for each animal.
Results: • 1. […]

NH2-QPLERMWTCNYNQQKDQSCNHKEITSTKAE-COOH (H-QPLERMWTCNYNQQKDQSCNHKEITSTKAE-OH; cysteine pairing not given here; listed as Homo sapiens) [sbg1 peptide]
frequency of movements (locomotor activity) over the time course of the experiment (average movements at 5, 10, 15 min compared with 30, 35, 40, 45 min): decrease in the frequency of their movements
stereotypy (grooming and scratching movements) (observed t=5 to 45 min, effect most prominent during the last period): increased stereotypy
